These results are taken from patent US6706664B1, “Benzoxazole compounds, process for the preparation thereof and herbicides” (UBE Industries, Ltd., priority 1999, dated 2004).

What all share (design): key: 0: normal development; 1: Less damaged; 2: Slightly damaged; 3: Moderately damaged; 4: Severely damaged; 5: All killed
Experiment [1] relates to annual bluegrass. Put plainly: Foliar spread test for upland field. It is filed as in vivo, Poa annua. Particulars: foliar spray 500 ppm, 3 weeks, rank vs non-treated. An outline of the steps:
(§1)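 Seeds are planted in pots of volcanic ash soil and grown roughly 2 weeks under glass. Foliage then receives a uniform spray of compound at 500 ppm in water with 0.5% surfactant. Herbicidal damage is rated 0–5 after 3 weeks at an average 25° C.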

Experiment [2] has as its system common lambsquartes. Put plainly: Foliar spread test for upland field. In kind it is in vivo, Chenopodium album. To be noted: foliar spray 500 ppm, 3 weeks, rank vs non-treated. Summed up:
as §1

Experiment [3] concerns morning glory. Description: Foliar spread test for upland field. It is filed as in vivo, Ipomoea spps. To be noted: foliar spray 500 ppm, 3 weeks, rank vs non-treated. An outline of the steps:
as §1

The test system of experiment [4] is Large crabgrass. Description: Foliar spread test for upland field. It is filed as in vivo, Digitaria adscendens. Particulars: foliar spray 500 ppm, 3 weeks, rank vs non-treated. An outline of the steps: as §1
The test system of experiment [5] is barnyardgrass. Put plainly: Soil treatment test for upland field. It is filed as in vivo, Echinochloa crusgalli. Particulars: 500 g/ha, glass house 25° C., 3 weeks. An outline of the steps: (§2)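 Pre-emergence test: seeds sown in Ube alluvial soil in Wagner pots, soil surface sprayed with wettable powder in water with 0.05% surfactant at 500 g/ha. Plants kept in a glasshouse at average 25 °C for 3 weeks, then damage scored 0 (normal) to 5 (all killed).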

The subject of experiment [6] is velvetleaf. Put plainly: Soil treatment test for upland field. It is filed as in vivo, Abutilon theophrasti. Particulars: 500 g/ha, glass house 25° C., 3 weeks. Summed up: as §2
Experiment [7] concerns green foxtail. Description: Soil treatment test for upland field. In kind it is in vivo, Setaria viridis. Particulars: 500 g/ha, glass house 25° C., 3 weeks. Summed up:
as §2

In experiment [8] the test system is Large crabgrass. Put plainly: Soil treatment test for upland field. In kind it is in vivo, Digitaria adscendens. Particulars: 500 g/ha, glass house 25° C., 3 weeks. An outline of the steps: as §2
In experiment [9] the test system is livid amaranth. Put plainly: Soil treatment test for upland field. To be noted: 500 g/ha, glass house 25° C., 3 weeks. In kind it is in vivo, Amaranthus lividus. Summed up: as §2
Experiment [10] deals with solgum. Put plainly: Soil treatment test for upland field. It is filed as in vivo. Particulars: 500 g/ha, glass house 25° C., 3 weeks. Summed up: as §2
In experiment [11] the test system is cotton. Description: Soil treatment test for upland field. It is filed as in vivo. To be noted: 500 g/ha, glass house 25° C., 3 weeks. An outline of the steps:
as §2

Experiment [12] deals with soybean. Put plainly: Soil treatment test for upland field. It is filed as in vivo. Particulars: 500 g/ha, glass house 25° C., 3 weeks. An outline of the steps: as §2
Experiment [13] concerns sugar beat. Description: Soil treatment test for upland field. In kind it is in vivo. Particulars: 500 g/ha, glass house 25° C., 3 weeks. Summed up: as §2
The test system of experiment [14] is wheat. Description: Soil treatment test for upland field. In kind it is in vivo. Particulars: 500 g/ha, glass house 25° C., 3 weeks. Summed up:
as §2

Experiment [15] concerns corn. Description: Soil treatment test for upland field. It is filed as in vivo. To be noted: 500 g/ha, glass house 25° C., 3 weeks. An outline of the steps: as §2
The test system of experiment [16] is monochoria. Put plainly: Herbicidal test for paddy field. It is filed as in vivo, Monochoria vaginalis. To be noted: paddy field pot, 500 g/ha dropwise at 1.5 leaf stage of barnyardgrass, 3 weeks, rank vs non-treated. An outline of the steps:
(§3)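 Post-flooding water application of 500 g/ha, given at 1.5-leaf barnyardgrass, to plants in Ube alluvial soil held under 3 cm of water. Ratings of 0 to 5 relative to untreated controls were made after three weeks in a glasshouse.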

Experiment [17] relates to barnyardgrass. Put plainly: Herbicidal test for paddy field. Particulars: paddy field pot, 500 g/ha dropwise at 1.5 leaf stage of barnyardgrass, 3 weeks, rank vs non-treated. In kind it is in vivo, Echinochloa crusgalli. An outline of the steps:
as §3

Experiment [18] concerns green foxtail. Put plainly: Foliar spread test for upland field. In kind it is in vivo, Setaria viridis. Particulars: foliar spray 500 ppm, 3 weeks, rank vs non-treated. Summed up:
as §1

For experiment [19], the system named is velvetleaf. Description: Foliar spread test for upland field. In kind it is in vivo, Abutilon theophrasti. Particulars: foliar spray 500 ppm, 3 weeks, rank vs non-treated. Summed up: as §1

For the molecule `CCCC(Oc1cccc(C(F)(F)F)c1)c1nc2cc(C#N)c(Cl)cc2o1` (stereo not drawn) [Compound 532], in experiment [1], the “Effects Annual bluegrass” value worked out at 4. Also, in experiment [2], the “Effects Common lambsquarters” value stood at 5. The “Effects Morning glory” value in experiment [3] was found to be 3. Moreover, the results for the “Effects Large crabgrass” value in [4] and in experiment [8] were 4 and 5, respectively. The “Effects Barnyardgrass” value in experiment [5] was 5. The “Effects Velvetleaf” value came to 5 in [6] and 3 in [19]. For the same molecule, the “Effects Green foxtail” value in [7] and in experiment [18] was 5 throughout. For the same molecule, in experiment [9], the “Effects Livid amaranth” value stood at 5. For the same molecule, the “Effects Solgum” value in experiment [10] is recorded as 1. In experiment [11], the “Effects Cotton” value was 1. Further, the “Effects Soybean” value in experiment [12] was 1. The “Effects Sugar beat” value in experiment [13] was 5. The “Effects Wheat” value in experiment [14] amounted to 2. In addition, the “Effects Corn” value in [15] is listed as 1. The “Effect Monochoria” value in [16] is 5. In addition, the “Effect Barnyardgrass” value in [17] is 5.

As to `CCC(Oc1cccc(OC(F)(F)F)c1)c1nc2cc([N+](=O)[O-])ccc2o1` (stereo not drawn) [Compound 450], in [1], the “Effects Annual bluegrass” value worked out at 4. The “Effects Common lambsquarters” value in experiment [2] came out at 4. The “Effects Morning glory” value in [3] is reported as 2. Further, the “Effects Large crabgrass” value amounted to 4 in experiment [4] and 5 in experiment [8]. The “Effects Barnyardgrass” value in [5] is listed as 5. In addition, the “Effects Velvetleaf” value is on record as 5 in [6] and 3 in experiment [19]. The figures for the “Effects Green foxtail” value in [7] and in experiment [18] were 5 and 3, respectively. For the same molecule, in experiment [9], the “Effects Livid amaranth” value was determined as 5. Also, in experiment [10], the “Effects Solgum” value amounted to 2. In [11], the “Effects Cotton” value is 2. In addition, the “Effects Soybean” value in experiment [12] is 1. The “Effects Sugar beat” value in experiment [13] was found to be 5. The “Effects Wheat” value in [14] amounted to 1. Also, the “Effects Corn” value in experiment [15] came out at 2. Moreover, the “Effect Monochoria” value in [16] is reported as 5. Besides, the “Effect Barnyardgrass” value in [17] is reported as 4.

Consider `CCC(Oc1cccc(C(F)(F)F)c1)c1nc2cc(C#N)c(C#N)cc2o1` (stereo not drawn) [Compound 315], for which the “Effects Annual bluegrass” value in experiment [1] is listed as 2. In addition, the “Effects Common lambsquarters” value in experiment [2] is listed as 5. Further, in experiment [3], the “Effects Morning glory” value is reported as 3. Further, the “Effects Large crabgrass” value in experiment [4] is given as 2; in [8], 5. The “Effects Barnyardgrass” value in experiment [5] came to 4. Besides, the “Effects Velvetleaf” value in [6] is recorded as 5; in experiment [19], 4. The “Effects Green foxtail” value in experiment [7] and in [18] was 5 in each case. Besides, in experiment [9], the “Effects Livid amaranth” value was determined as 5. Also, the “Effects Solgum” value in [10] is given as 1. Besides, in experiment [11], the “Effects Cotton” value worked out at 1. Further, the “Effects Soybean” value in experiment [12] was determined as 1. In addition, in [13], the “Effects Sugar beat” value was 5. Moreover, the “Effects Wheat” value in experiment [14] is 1. Also, the “Effects Corn” value in [15] is recorded as 2. Moreover, the “Effect Monochoria” value in experiment [16] was 4. Besides, the “Effect Barnyardgrass” value in experiment [17] is reported as 3.
